In patent publication US20230140983A1, “PYRIDAZINE DERIVATIVES FOR MODULATING NUCLEIC ACID SPLICING” (REMIX THERAPEUTICS INC., priority 2020, published 2023):
Like-named read-outs stand apart in the source and are kept apart here.

Key:
Format in all cases: cell-based
Target C = assay: Gene panel canonical junction qPCR assay, Target C CJ mRNA; conditions: Table 9, CJ mRNA decrease, read-out: Target C IC50 (decrease in CJ mRNA levels)
Protocol: (§1) To set up 10 uL RT-qPCR reactions, cell lysates were transferred to 384-well qPCR plates containing the master mix according to the table below. The plates were sealed, gently vortexed, and spun down before the run. The volumes were adjusted accordingly in some instances where the reaction was carried in 20 uL. The table below summarizes the components of the RT-qPCR reactions:
(§2) The RT-qPCR reaction was performed using a QuantStudio (ThermoFisher) under the following fast cycling conditions. All samples and standards were analyzed at least in duplicate. In some instances, bulk room temperature (RT) step of 5-10 minutes was completed for all plates before proceeding with qPCR. The table below summarizes the PCR cycle:
(§3) The data analysis was performed by first determining the ΔCt vs the housekeeper gene. This ΔCt was then normalized against the DMSO control (ΔΔCt) and converted to RQ (relative quantification) using the 2^(−ΔΔCt) equation. The RQ were then converted to a percentage response by arbitrarily setting an assay window of 3.5 ΔCt for HTT-CJ and an assay window of 9 ΔCt for HTT-AJ. […] The percentage response was then fitted to the 4 parametric logistic equation to evaluate the concentration dependence of compound treatment. The increase in AJ mRNA is reported as AC50 (compound concentration having 50% response in AJ increase) while the decrease in CJ mRNA levels is reported as IC50 (compound concentration having 50% response in CJ decrease).
(§4) Additional studies were carried out for a larger panel of genes using the protocol provided above. The junction between flanking upstream and downstream exons was used to design canonical junction qPCR assays. At least one of the forward primer, reverse primer or the CY5-labeled 5′ nuclease probe (with 3′ quencher such as ZEN/Iowa Black FQ) was designed to overlap with the exon junction to capture the CJ mRNA transcript. BLAST was used to confirm the specificity of the probeset and parameters such as melting temperature, GC content, amplicon size, and primer dimer formation are considered during their design. Data for the decrease in CJ mRNA levels for three exemplary genes (HTT, SMN2, and Target C) analyzed in this panel are reported as IC50 (compound concentration having 50% response in CJ decrease).

HTT [1] = assay: Splicing assay (RT-qPCR on cell lysates) monitoring HTT splice variants: AJ and CJ mRNA; conditions: Table 8, concentration having 50% response
In short: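 Cell lysates were analysed by RT-qPCR, with ΔCt taken against a housekeeping gene and normalised to DMSO to give RQ by 2^(−ΔΔCt). Assay windows were set at 9 ΔCt for AJ and 3.5 ΔCt for CJ, and 4-parameter fits gave AC50 for the AJ increase and IC50 for the CJ decrease.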

HTT [2] = assay: Gene panel canonical junction qPCR assay, HTT CJ mRNA; conditions: Table 9, CJ mRNA decrease, read-out: HTT IC50 (decrease in CJ mRNA levels)
Protocol: as §1, §2, §3, §4

SMN2 = assay: Gene panel canonical junction qPCR assay, SMN2 CJ mRNA; conditions: Table 9, CJ mRNA decrease, read-out: SMN2 IC50 (decrease in CJ mRNA levels)
Protocol: as §1, §2, §3, §4

[3] = decrease in CJ mRNA, read-out: HTT CJ AC50
[4] = increase in AJ mRNA, read-out: HTT AJ AC50

| SMILES | IC50 (Target C) [µM] | AC50 (HTT [1]; [3]) [µM] | AC50 (HTT [1]; [4]) [µM] | IC50 (HTT [2]) [µM] | IC50 (SMN2) [µM] |
| --- | --- | --- | --- | --- | --- |
| c1nc2c(-c3cn[nH]c3)ccc(-c3ccc(S[C@@H]4C[C@H]5CC[C@@H](C4)N5)nn3)c2s1 [Compound 200, 7-{6-[(exo)-8-azabicyclo[3.2.1]octan-3-ylsulfanyl]pyridazin-3-yl}-4-(1H-pyrazol-4-yl)-1,3-benzothiazole] | > 10 | > 10 | > 10 | > 10 | > 10 |
| Cc1ncc(-c2ccc(-c3ccc(N(C)C4CC(C)(C)NC(C)(C)C4)nn3)c3ncsc23)o1 [Compound 201] | 1 to 10 | 1 to 10 | 1 to 10 | 1 to 10 | 0.1 to 1 |
| c1nc2c(-c3cn[nH]c3)ccc(-c3ccc(N[C@@H]4C[C@H]5CC[C@@H](C4)N5)nn3)c2s1 [Compound 202, (exo-)-N-[6-[4-(1H-pyrazol-4-yl)-1,3-benzothiazol-7-yl]pyridazin-3-yl]-8-azabicyclo[3.2.1]octan-3-amine] | 0.1 to 1 | < 0.1 | < 0.1 | < 0.1 | < 0.1 |
| CCN(c1ccc(-c2ccc(-c3cn[nH]c3)c3ncsc23)nn1)[C@@H]1C[C@H]2CC[C@@H](C1)N2 [Compound 203, (exo-)-N-ethyl-N-[6-[4-(1H-pyrazol-4-yl)-1,3-benzothiazol-7-yl]pyridazin-3-yl]-8-azabicyclo[3.2.1]octan-3-amine] | 0.1 to 1 | 0.1 to 1 | 0.1 to 1 | 0.1 to 1 | < 0.1 |
| CN(c1ccc(-c2ccc(-c3cn[nH]c3)c3ncsc23)nn1)[C@H]1C[C@]2(C)CC[C@](C)(C1)N2 [Compound 204, (exo-)-N,1,5-trimethyl-N-[6-[4-(1H-pyrazol-4-yl)-1,3-benzothiazol-7-yl]pyridazin-3-yl]-8-azabicyclo[3.2.1]octan-3-amine] | < 0.1 | < 0.1 | < 0.1 | < 0.1 | < 0.1 |
| CN(c1ccc(-c2ccc(-c3cn[nH]c3)c3ncsc23)nn1)[C@H]1[C@@H]2CNC[C@@H]21 [Compound 205, (exo-)-N-methyl-N-[6-[4-(1H-pyrazol-4-yl)-1,3-benzothiazol-7-yl]pyridazin-3-yl]-3-azabicyclo[3.1.0]hexan-6-amine] | > 10 | > 10 | > 10 | > 10 | 1 to 10 |
| c1nc2c(-c3cn[nH]c3)ccc(-c3ccc(C4CCNCC4)nn3)c2s1 [Compound 206] | > 10 | 1 to 10 | > 10 | 1 to 10 | < 0.1 |
| c1nc2c(-c3cn[nH]c3)ccc(-c3ccc(O[C@@H]4C[C@H]5CCC[C@@H](C4)N5)nn3)c2s1 [Compound 209] | > 10 | > 10 | > 10 | > 10 | 0.1 to 1 |
| [2H]C([2H])([2H])N(c1ccc(-c2ccc(-c3cn[nH]c3)c3ncsc23)nn1)[C@@H]1C[C@H]2CC[C@@H](C1)N2 [Compound 210, (exo-)-N-(D3)methyl-N-[6-[4-(1H-pyrazol-4-yl)-1,3-benzothiazol-7-yl]pyridazin-3-yl]-8-azabicyclo [3.2.1]octan-3-amine] | < 0.1 | < 0.1 | < 0.1 | < 0.1 | < 0.1 |
| CN(c1ccc(-c2ccc(-c3cn[nH]c3)c3ncsc23)nn1)[C@@H]1C[C@H]2CC[C@@H](C1)N2 [Compound 213, (exo)-N-methyl-N-{6-[4-(1H-pyrazol-4-yl)-1,3-benzothiazol-7-yl]pyridazin-3-yl}-8-azabicyclo[3.2.1]octan-3-amine] | < 0.1 | < 0.1 | < 0.1 | < 0.1 | < 0.1 |
| c1nc2c(-c3cn[nH]c3)ccc(-c3ccc(NC4CCNCC4)nn3)c2s1 [Compound 214, N-(piperidin-4-yl)-6-[4-(1H-pyrazol-4-yl)-1,3-benzothiazol-7-yl]pyridazin-3-amine] | > 10 | > 10 | 1 to 10 | > 10 | 0.1 to 1 |
| c1nc2c(-c3cn[nH]c3)ccc(-c3ccc(N[C@@H]4C[C@H]5CCC[C@@H](C4)N5)nn3)c2s1 [Compound 215] | < 0.1 | < 0.1 | < 0.1 | < 0.1 | < 0.1 |
| Fc1cc(-c2ccc(O[C@@H]3C[C@H]4CC[C@@H](C3)N4)nn2)c2[nH]ncc2c1-c1cn[nH]c1 [Compound 216, 7-[6-[(exo)-8-azabicyclo[3.2.1]octan-3-yloxy]pyridazin-3-yl]-5-fluoro-4-(1H-pyrazol-4-yl)-1H-indazole] | 0.1 to 1 | < 0.1 | < 0.1 | < 0.1 | < 0.1 |
| c1n[nH]cc1-c1ccc(-c2ccc(N3CC4(CCCNC4)C3)nn2)c2[nH]ncc12 [Compound 218] | > 10 | > 10 | > 10 | > 10 | > 10 |
| c1n[nH]cc1-c1ccc(-c2ccc(O[C@@H]3C[C@H]4CCC[C@@H](C3)N4)nn2)c2[nH]ncc12 [Compound 219] | 0.1 to 1 | 0.1 to 1 | 0.1 to 1 | 0.1 to 1 | < 0.1 |
| CC1(C)CC(Oc2ccc(-c3ccc(-c4cn[nH]c4)c4cn[nH]c34)nn2)CCN1 (centres unmarked) [Compound 220] | > 10 | 1 to 10 | > 10 | 1 to 10 | 0.1 to 1 |
| c1n[nH]cc1-c1ccc(-c2ccc(S[C@@H]3C[C@H]4CC[C@@H](C3)N4)nn2)c2[nH]ncc12 [Compound 221] | > 10 | > 10 | > 10 | > 10 | > 10 |
| CN(c1ccc(-c2ccc(-c3cn[nH]c3)c3ncsc23)nn1)C1CCNCC1 [Compound 222, N-methyl-N-(piperidin-4-yl)-6-[4-(1H-pyrazol-4-yl)-1,3-benzothiazol-7-yl]pyridazin-3-amine] | 1 to 10 | 1 to 10 | 1 to 10 | 1 to 10 | 0.1 to 1 |
| [2H]C([2H])([2H])N(c1ccc(-c2ccc(-c3cn[nH]c3)c3ncsc23)nn1)C1CCNCC1 [Compound 223, N-(D3)methyl-N-(piperidin-4-yl)-6-[4-(1H-pyrazol-4-yl)-1,3-benzothiazol-7-yl] pyridazin-3-amine] | 1 to 10 | 1 to 10 | 1 to 10 | 1 to 10 | 0.1 to 1 |
| CCN(c1ccc(-c2ccc(-c3cn[nH]c3)c3ncsc23)nn1)C1CCNCC1 [Compound 224, N-ethyl-N-(piperidin-4-yl)-6-[4-(1H-pyrazol-4-yl)-1,3-benzothiazol-7-yl]pyridazin-3-amine] | > 10 | > 10 | > 10 | > 10 | 1 to 10 |
| CCN(c1ccc(-c2ccc(-c3cn[nH]c3)c3ncsc23)nn1)C1CC(C)(C)NC(C)(C)C1 [Compound 225, N-ethyl-6-[4-(1H-pyrazol-4-yl)-1,3-benzothiazol-7-yl]-N-(2,2,6,6-tetramethylpiperidin-4-yl)pyridazin-3-amine] | 1 to 10 | 1 to 10 | 1 to 10 | 1 to 10 | 0.1 to 1 |
| CN(c1ccc(-c2ccc(-c3cn[nH]c3)c3ncsc23)nn1)[C@@H]1C[C@H]2CCC[C@@H](C1)N2 [Compound 226] | < 0.1 | < 0.1 | < 0.1 | < 0.1 | < 0.1 |
| [2H]C([2H])([2H])N(c1ccc(-c2ccc(-c3cn[nH]c3)c3ncsc23)nn1)[C@@H]1C[C@H]2CCC[C@@H](C1)N2 [Compound 227] | < 0.1 | < 0.1 | < 0.1 | < 0.1 | < 0.1 |
| CCN(c1ccc(-c2ccc(-c3cn[nH]c3)c3ncsc23)nn1)[C@@H]1C[C@H]2CCC[C@@H](C1)N2 [Compound 228] | < 0.1 | < 0.1 | 0.1 to 1 | < 0.1 | < 0.1 |
| c1n[nH]cc1-c1ccc(-c2ccc(N3CC4(CCNCC4)C3)nn2)c2[nH]ncc12 [Compound 229] | 1 to 10 | 1 to 10 | 1 to 10 | 1 to 10 | 1 to 10 |
